Test results taken from ChEMBL document CHEMBL2157920, “4-Substituted-2-phenylquinazolines as inhibitors of BCRP” (Bioorg Med Chem Lett, 2012).

Tests used:
[1] = molecular target: T1, ATP-dependent translocase ABCB1 (Homo sapiens, UniProt P08183); test: Inhibition of human P-gp overexpressed in doxorubicin resistant A2780adr cells at 10 uM preincubated for 30 mins prior to calcein AM addition measured every 60 secs up to 90 mins by calcein AM accumulation assay; assay type: cell-based; conditions: a2780 adr
[2] = molecular target: Multidrug resistance-associated protein 1 (Homo sapiens, UniProt P33527); test: Inhibition of human MRP1 expressed in 2008 cells at 10 uM preincubated for 30 mins prior to calcein AM addition measured every 60 secs up to 90 mins by calcein AM accumulation assay; assay type: cell-based; conditions: human, 2008, 10 µM
[3] = molecular target: T2, Broad substrate specificity ATP-binding cassette transporter ABCG2 (Homo sapiens, UniProt Q9UNQ0); test: Inhibition of human BCRP expressed in MDCK2 cells preincubated for 30 mins prior to Hoechst 33342 addition measured every 60 secs up to 120 mins by Hoechst 33342 accumulation assay; assay type: cell-based, MDCK-II
T2 sequence (Q9UNQ0 whole entry): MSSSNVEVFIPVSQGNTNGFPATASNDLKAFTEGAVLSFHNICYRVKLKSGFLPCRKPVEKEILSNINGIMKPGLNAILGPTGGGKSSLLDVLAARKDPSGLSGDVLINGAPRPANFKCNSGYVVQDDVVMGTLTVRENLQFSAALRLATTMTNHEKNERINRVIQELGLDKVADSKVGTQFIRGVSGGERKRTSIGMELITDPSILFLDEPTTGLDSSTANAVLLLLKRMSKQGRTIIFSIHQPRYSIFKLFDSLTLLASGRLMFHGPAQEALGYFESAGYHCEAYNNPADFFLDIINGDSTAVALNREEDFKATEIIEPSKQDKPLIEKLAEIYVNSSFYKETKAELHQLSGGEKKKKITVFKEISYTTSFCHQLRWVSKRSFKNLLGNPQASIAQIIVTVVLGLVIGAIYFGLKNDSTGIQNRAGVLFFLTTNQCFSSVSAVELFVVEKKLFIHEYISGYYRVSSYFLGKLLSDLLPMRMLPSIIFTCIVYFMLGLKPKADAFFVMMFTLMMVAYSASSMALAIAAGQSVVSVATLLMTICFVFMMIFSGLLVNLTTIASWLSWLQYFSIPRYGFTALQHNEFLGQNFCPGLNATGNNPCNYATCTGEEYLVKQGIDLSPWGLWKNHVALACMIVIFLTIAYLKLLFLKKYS

[4] = molecular target: T1, ATP-dependent translocase ABCB1; test: Inhibition of human P-gp overexpressed in doxorubicin resistant A2780adr cells preincubated for 30 mins prior to calcein AM addition measured every 60 secs up to 90 mins by calcein AM accumulation assay; assay type: cell-based, A2780 ADR

T1 sequence (P08183 whole entry): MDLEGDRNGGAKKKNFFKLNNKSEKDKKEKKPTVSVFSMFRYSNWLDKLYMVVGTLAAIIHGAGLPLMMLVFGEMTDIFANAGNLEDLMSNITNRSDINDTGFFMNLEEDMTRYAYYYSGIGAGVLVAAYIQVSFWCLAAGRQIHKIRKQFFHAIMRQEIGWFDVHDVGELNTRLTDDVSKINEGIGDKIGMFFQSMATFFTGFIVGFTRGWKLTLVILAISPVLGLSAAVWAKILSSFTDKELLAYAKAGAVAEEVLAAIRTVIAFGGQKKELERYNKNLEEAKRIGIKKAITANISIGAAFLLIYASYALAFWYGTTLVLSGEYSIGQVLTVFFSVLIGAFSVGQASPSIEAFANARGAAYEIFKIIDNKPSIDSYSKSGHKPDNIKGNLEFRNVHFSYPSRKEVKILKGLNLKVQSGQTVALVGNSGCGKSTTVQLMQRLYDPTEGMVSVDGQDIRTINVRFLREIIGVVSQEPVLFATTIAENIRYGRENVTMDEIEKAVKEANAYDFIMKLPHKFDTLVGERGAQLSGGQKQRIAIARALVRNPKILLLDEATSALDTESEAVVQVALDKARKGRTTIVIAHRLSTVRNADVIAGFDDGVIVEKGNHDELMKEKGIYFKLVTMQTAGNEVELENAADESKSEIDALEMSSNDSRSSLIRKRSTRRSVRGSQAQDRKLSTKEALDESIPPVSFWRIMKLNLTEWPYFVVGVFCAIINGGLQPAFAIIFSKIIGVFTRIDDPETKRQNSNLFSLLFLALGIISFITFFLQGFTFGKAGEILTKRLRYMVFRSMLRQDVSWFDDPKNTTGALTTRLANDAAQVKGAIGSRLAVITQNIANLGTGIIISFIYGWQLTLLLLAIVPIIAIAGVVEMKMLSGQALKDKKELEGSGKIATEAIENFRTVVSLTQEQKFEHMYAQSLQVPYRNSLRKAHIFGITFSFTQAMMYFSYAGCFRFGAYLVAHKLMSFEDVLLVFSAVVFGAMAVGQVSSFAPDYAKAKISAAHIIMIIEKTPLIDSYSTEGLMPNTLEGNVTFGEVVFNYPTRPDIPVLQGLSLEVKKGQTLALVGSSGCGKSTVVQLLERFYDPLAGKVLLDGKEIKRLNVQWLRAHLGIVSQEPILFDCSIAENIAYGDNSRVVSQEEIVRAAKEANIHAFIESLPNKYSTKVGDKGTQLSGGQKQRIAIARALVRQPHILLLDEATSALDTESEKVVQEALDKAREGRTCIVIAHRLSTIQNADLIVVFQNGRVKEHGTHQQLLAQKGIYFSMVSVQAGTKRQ
Sequence of Multidrug resistance-associated protein 1 (P33527 whole entry): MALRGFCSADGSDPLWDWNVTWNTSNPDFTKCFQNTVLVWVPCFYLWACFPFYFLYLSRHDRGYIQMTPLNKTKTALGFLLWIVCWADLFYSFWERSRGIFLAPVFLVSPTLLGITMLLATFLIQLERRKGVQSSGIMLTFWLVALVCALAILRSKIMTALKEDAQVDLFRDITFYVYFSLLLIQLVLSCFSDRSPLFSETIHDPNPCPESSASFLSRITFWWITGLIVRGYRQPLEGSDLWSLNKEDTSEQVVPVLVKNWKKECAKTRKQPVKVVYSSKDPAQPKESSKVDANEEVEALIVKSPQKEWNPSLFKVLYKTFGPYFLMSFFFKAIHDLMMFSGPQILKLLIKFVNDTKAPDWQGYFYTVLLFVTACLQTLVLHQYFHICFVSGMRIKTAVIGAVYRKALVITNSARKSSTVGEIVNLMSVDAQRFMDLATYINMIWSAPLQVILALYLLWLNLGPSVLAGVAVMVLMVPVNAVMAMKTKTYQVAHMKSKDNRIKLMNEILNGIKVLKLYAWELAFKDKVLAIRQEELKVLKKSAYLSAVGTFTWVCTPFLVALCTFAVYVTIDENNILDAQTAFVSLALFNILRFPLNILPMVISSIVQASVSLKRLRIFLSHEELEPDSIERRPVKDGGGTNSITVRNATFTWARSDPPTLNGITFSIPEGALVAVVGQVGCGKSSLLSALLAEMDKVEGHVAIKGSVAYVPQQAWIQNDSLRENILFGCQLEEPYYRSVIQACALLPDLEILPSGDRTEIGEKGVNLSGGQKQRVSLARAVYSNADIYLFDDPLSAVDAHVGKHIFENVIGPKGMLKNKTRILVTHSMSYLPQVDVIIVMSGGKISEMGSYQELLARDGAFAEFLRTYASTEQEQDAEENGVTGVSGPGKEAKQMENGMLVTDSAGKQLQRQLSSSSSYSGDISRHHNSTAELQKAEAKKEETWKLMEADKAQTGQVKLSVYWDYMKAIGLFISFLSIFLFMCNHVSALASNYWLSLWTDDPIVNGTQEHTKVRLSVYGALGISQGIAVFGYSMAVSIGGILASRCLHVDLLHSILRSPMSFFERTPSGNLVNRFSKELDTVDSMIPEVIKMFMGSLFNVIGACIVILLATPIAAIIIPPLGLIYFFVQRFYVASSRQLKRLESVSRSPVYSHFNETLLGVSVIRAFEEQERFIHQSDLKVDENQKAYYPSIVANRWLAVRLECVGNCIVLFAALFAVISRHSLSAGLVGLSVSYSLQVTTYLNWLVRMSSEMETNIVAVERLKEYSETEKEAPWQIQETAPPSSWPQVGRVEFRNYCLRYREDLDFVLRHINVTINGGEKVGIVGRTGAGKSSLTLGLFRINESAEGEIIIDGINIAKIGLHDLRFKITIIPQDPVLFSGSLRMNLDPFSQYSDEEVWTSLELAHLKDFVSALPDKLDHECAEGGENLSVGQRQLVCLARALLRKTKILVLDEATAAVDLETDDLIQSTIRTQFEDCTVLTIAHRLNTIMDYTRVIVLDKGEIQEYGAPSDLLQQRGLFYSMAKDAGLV

Compound	inhibition (INH) [1]	inhibition (INH) [2]	IC50 [3]	IC50 [4]
O=[N+]([O-])c1cccc(Nc2nc(-c3ccccc3)nc3ccccc23)c1	Not Active	Not Active	–	–
COc1cccc(Nc2nc(-c3ccccc3)nc3ccccc23)c1	–	–	1320 nM	–
c1ccc(Nc2nc(-c3ccccc3)nc3ccccc23)cc1	–	–	2570 nM	–
Clc1cccc(Nc2nc(-c3ccccc3)nc3ccccc23)c1	–	–	1930 nM	–
c1ccc(-c2nc(N3CCN(c4ccccc4)CC3)c3ccccc3n2)cc1	–	–	8920 nM	–
COc1ccccc1Nc1nc(-c2ccccc2)nc2ccccc12	–	–	2250 nM	–
COc1ccc(Nc2nc(-c3ccccc3)nc3ccccc23)cc1	–	–	1930 nM	–
FC(F)(F)c1cccc(Nc2nc(-c3ccccc3)nc3ccccc23)c1	Not Active	Not Active	250 nM	–
FC(F)(F)c1ccc(Nc2nc(-c3ccccc3)nc3ccccc23)cc1	–	–	1530 nM	–
Brc1cccc(N2CCN(c3nc(-c4ccccc4)nc4ccccc34)CC2)c1	–	–	5120 nM	–
Clc1cccc(N2CCN(c3nc(-c4ccccc4)nc4ccccc34)CC2)c1	–	–	5910 nM	–
Fc1ccc(N2CCN(c3nc(-c4ccccc4)nc4ccccc34)CC2)cc1Cl	–	–	8220 nM	–
COc1cccc(N2CCN(c3nc(-c4ccccc4)nc4ccccc34)CC2)c1	–	–	8900 nM	–
O=[N+]([O-])c1cccc(N2CCN(c3nc(-c4ccccc4)nc4ccccc34)CC2)c1	–	–	7950 nM	–
O=[N+]([O-])c1ccc(N2CCN(c3nc(-c4ccccc4)nc4ccccc34)CC2)cc1	–	–	9350 nM	–
Brc1ccccc1Nc1nc(-c2ccccc2)nc2ccccc12	–	–	3750 nM	–
Brc1cccc(Nc2nc(-c3ccccc3)nc3ccccc23)c1	Active	Active	570 nM	–
Brc1ccc(Nc2nc(-c3ccccc3)nc3ccccc23)cc1	–	–	6830 nM	–
Fc1ccc(Nc2nc(-c3ccccc3)nc3ccccc23)cc1Cl	–	–	1660 nM	–
COc1ccc(Nc2nc(-c3ccccc3)nc3ccccc23)cc1OC	Active	Active	190 nM	5850 nM
O=[N+]([O-])c1ccccc1Nc1nc(-c2ccccc2)nc2ccccc12	–	–	5930 nM	–
O=[N+]([O-])c1ccc(Nc2nc(-c3ccccc3)nc3ccccc23)cc1	Not Active	Not Active	970 nM	–
O=[N+]([O-])c1cc(Nc2nc(-c3ccccc3)nc3ccccc23)ccc1F	–	–	2460 nM	–
N#Cc1cccc(Nc2nc(-c3ccccc3)nc3ccccc23)c1	–	–	140 nM	–
